Experimental findings from patent publication US8987500B2, “4-biphenyl-substituted pyrazolidin-3,5-dione derivatives” (Bayer CropScience AG, priority 2003, dated 2015) are described below.

The test system of one test is green peach aphid (Myzus persicae). The test is described as follows: Myzus test (spray treatment), Example D. It counts as in vivo. The settings on record: Table D, 500 g/ha active compound. As for the experimental part:
Myzus Test (Spray Treatment)
(§1) To produce a suitable preparation of active compound, 1 part by weight of active compound is mixed with the stated amounts of solvents and emulsifier, and the concentrate is diluted with emulsifier-containing water to the desired concentration.
Discs of Chinese cabbage (Brassica pekinensi), which are infested by all stages of the green peach aphid (Myzus persicae) are sprayed with a preparation of active compound of the desired concentration.
After the desired period of time, the activity in % is determined 100% means that all aphids have been killed; 0% means that none of the aphids have been killed.
For `Cc1cc(C)c(-c2c(O)n3n(c2=O)CCOCC3)c(C)c1-c1ccc(F)cc1` [Example I-2-a-32], the “Kill rate in % after 5d” value came to 90%.
Still for that read-out and setting: to `Cc1ccc(-c2cccc([N+](=O)[O-])c2)cc1-c1c(OC(=O)C(C)(C)C)n2n(c1=O)CCCC2` [Ex. I-1-b-26] belongs 100%.

The next test deals with larvae of the mustard beetle (Phaedon cochleariae). The test is described as follows: Phaedon test (spray treatment), Example E. The following applies: Table E, 500 g/ha active compound. In kind it is in vivo. On the procedure:
(§2) Phaedon Test (Spray Treatment) [table] To produce a suitable preparation of active compound, 1 part by weight of active compound is mixed with the stated amounts of solvents and emulsifier, and the concentrate is diluted with emulsifier-containing water to the desired concentration. Discs of Chinese cabbage (Brassica pekinensis) are sprayed with a preparation of active compound of the desired concentration and, after they have dried, populated with larvae of the mustard beetle (Phaedon cochleariae). After the desired period of time, the activity in % is determined 100% means that all beetle larvae have been killed; 0% means that none of the beetle larvae have been killed.
Take `CCOC(=O)Oc1c(-c2cc(-c3ccccc3C)ccc2C)c(=O)n2n1CCOCC2` [Ex. I-2-c-7]: the “Kill rate in % after 7d” value is listed as 100%.
The same measure, in the same setting: as for `Cc1ccc(-c2ccc(Cl)c(Cl)c2)cc1-c1c(O)n2n(c1=O)CCOCC2` [Example I-2-a-13], the figure is 100%.
`CCOC(=O)Oc1c(-c2cc(-c3ccc(F)cc3F)ccc2C)c(=O)n2n1CCOCC2` [Ex. I-2-c-15]: the “Kill rate in % after 7d” value is 100%.
The same measure, in the same setting: to `CCOC(=O)Oc1c(-c2cc(-c3cc(Cl)cc(Cl)c3)ccc2C)c(=O)n2n1CCCC2` [Ex. I-1-c-14] belongs 100%.
Still for that read-out and setting: as for `CCOC(=O)Oc1c(-c2cc(-c3ccccc3F)ccc2C)c(=O)n2n1CCOCC2` [Ex. I-2-c-4], the figure is 100%.
As to `CCOC(=O)Oc1c(-c2cc(-c3cccc(C(F)(F)F)c3)ccc2C)c(=O)n2n1CCOCC2` [Ex. I-2-c-19], the “Kill rate in % after 7d” value was determined as 100%.
Same read-out and setting: as for `Cc1ccc(-c2ccc(Cl)c(Cl)c2)cc1-c1c(O)n2n(c1=O)CCCC2` [Example I-1-a-13], the figure is 100%; as for `CCOC(=O)Oc1c(-c2cc(-c3ccc(C)cc3)ccc2C)c(=O)n2n1CCCC2` [Ex. I-1-c-9], 100%; as for `CCOC(=O)Oc1c(-c2cc(-c3ccc(Cl)cc3Cl)ccc2C)c(=O)n2n1CCOCC2` [Ex. I-2-c-11], 100%.
`CCOC(=O)Oc1c(-c2cc(-c3ccc(C)cc3)ccc2C)c(=O)n2n1CCOCC2` [Ex. I-2-c-9]: the “Kill rate in % after 7d” value is recorded as 100%.
Still for that read-out and setting: as for `CCOC(=O)Oc1c(-c2cc(-c3cc(Cl)ccc3Cl)ccc2C)c(=O)n2n1CCOCC2` [Ex. I-2-c-12], the figure is 100%; as for `Cc1ccc(-c2ccc(Cl)c(Cl)c2)cc1-c1c(OC(=O)C(C)(C)C)n2n(c1=O)CCCC2` [Ex. I-1-b-13], 100%.
Same read-out and setting: to `Cc1ccc(-c2ccc(F)c(Cl)c2)cc1-c1c(OC(=O)C(C)(C)C)n2n(c1=O)CCOCC2` [Ex. I-2-b-17] belongs 100%; to `Cc1ccc(-c2cc(F)ccc2F)cc1-c1c(OC(=O)C(C)(C)C)n2n(c1=O)CCCC2` [Ex. I-1-b-16], 100%.
Regarding `Cc1ccc(-c2cccc([N+](=O)[O-])c2)cc1-c1c(O)n2n(c1=O)CCOCC2` [Example I-2-a-26], the “Kill rate in % after 7d” value is reported as 100%.
Still for that read-out and setting: to `Cc1cc(C)c(-c2c(OC(=O)C(C)(C)C)n3n(c2=O)CCOCC3)c(C)c1-c1ccc(F)cc1` [Ex. I-2-b-32] belongs 100%; to `CCOC(=O)Oc1c(-c2cc(-c3cc(Cl)cc(Cl)c3)ccc2C)c(=O)n2n1CCOCC2` [Ex. I-2-c-14], 100%.
On the same count and under the same terms, as for `Cc1ccc(-c2ccc(OC(F)(F)F)cc2)cc1-c1c(OC(=O)C(C)(C)C)n2n(c1=O)CCCC2` [Ex. I-1-b-27], the figure is 100%.
As for `Cc1ccc(-c2cccc(C(F)(F)F)c2)cc1-c1c(OC(=O)C(C)(C)C)n2n(c1=O)CCOCC2` [Ex. I-2-b-19], the “Kill rate in % after 7d” value is on record as 100%.
Same read-out and setting: as for `CCOC(=O)Oc1c(-c2cc(-c3ccc(F)c(Cl)c3)ccc2C)c(=O)n2n1CCOCC2` [Ex. I-2-c-17], the figure is 100%.

The test system of a further test is caterpillars of the army worm (Spodoptera frugiperda). The test is described as follows: Spodoptera frugiperda test (spray treatment), Example F. It counts as in vivo. The settings on record: maize leaf discs, 100 g/ha. On the procedure: as §2, with “Spodoptera frugiperda” for “Phaedon”, “maize leaves (Zea mays)” for “Chinese cabbage (Brassica pekinensis)”, “caterpillars” for “larvae”, “army worm (Spodoptera frugiperda).” for “mustard beetle (Phaedon cochleariae).”, “caterpillars” for “beetle larvae”
As for `Cc1ccc(-c2ccc(Cl)cc2)cc1-c1c(OC(=O)C(C)C)n2n(c1=O)CCCC2` [Ex. I-1-b-32], the “Kill rate in % after 7d” value is 100%.

Staying with this test, now noted: maize leaf discs, 500 g/ha.
As to `CCOC(=O)Oc1c(-c2cc(-c3cccc(F)c3)ccc2C)c(=O)n2n1CCOCC2` [Ex. I-2-c-5], the “Kill rate in % after 7d” value came to 100%.
On the same count and under the same terms, as for `CCOC(=O)Oc1c(-c2cc(-c3ccc(F)c(Cl)c3)ccc2C)c(=O)n2n1CCCC2` [Ex. I-1-c-17], the figure is 83%.
In the case of `Cc1ccc(-c2ccc(C(F)(F)F)cc2)cc1-c1c(OC(=O)C(C)(C)C)n2n(c1=O)CCOCC2` [Ex. I-2-b-20], the “Kill rate in % after 7d” value was 100%.
Still for that read-out and setting: to `Cc1ccc(-c2ccc(Cl)cc2)cc1-c1c(OC(=O)C(C)(C)C)n2n(c1=O)CCOCC2` [Ex. I-2-b-3] belongs 83%.
Regarding `CCOC(=O)Oc1c(-c2cc(-c3ccc(Cl)c(Cl)c3)ccc2C)c(=O)n2n1CCCC2` [Ex. I-1-c-13], the “Kill rate in % after 7d” value is on record as 83%.
Same read-out and setting: to `CCOC(=O)Oc1c(-c2cc(-c3ccc(C(F)(F)F)cc3)ccc2C)c(=O)n2n1CCOCC2` [Ex. I-2-c-20] belongs 100%; to `CCOC(=O)Oc1c(-c2cc(-c3cccc(C(F)(F)F)c3)ccc2C)c(=O)n2n1CCCC2` [Ex. I-1-c-18], 100%.
On the same count and under the same terms, as for `Cc1ccc(-c2cccc(F)c2)cc1-c1c(OC(=O)C(C)(C)C)n2n(c1=O)CCOCC2` [Ex. I-2-b-5], the figure is 100%; as for `Cc1ccc(-c2ccc(F)cc2F)cc1-c1c(OC(=O)C(C)(C)C)n2n(c1=O)CCCC2` [Ex. I-1-b-15], 100%.
On the same count and under the same terms, to `Cc1ccc(-c2ccc(F)cc2)cc1-c1c(O)n2n(c1=O)CCOCC2` [Example I-2-a-6] belongs 100%; to `CCOC(=O)Oc1c(-c2cc(-c3ccc(Cl)cc3)ccc2C)c(=O)n2n1CCOCC2` [Ex. I-2-c-3], 100%.
For `Cc1ccc(-c2cccc(Cl)c2)cc1-c1c(OC(=O)C(C)(C)C)n2n(c1=O)CCOCC2` [Ex. I-2-b-2], the “Kill rate in % after 7d” value is listed as 100%.
On the same count and under the same terms, as for `CCOC(=O)Oc1c(-c2cc(-c3ccc(Cl)c(Cl)c3)ccc2C)c(=O)n2n1CCOCC2` [Ex. I-2-c-13], the figure is 100%.
Turning to `CCOC(=O)Oc1c(-c2cc(-c3cccc(Cl)c3)ccc2C)c(=O)n2n1CCOCC2` [Ex. I-2-c-2], the “Kill rate in % after 7d” value came out at 83%.

The test system of a further test is greenhouse red spider mite (Tetranychus urticae). Kind of test: Tetranychus test (OP-resistant/spray treatment), Example G. In kind it is in vivo. The settings on record: Tetranychus urticae (OP-resistant), bean leaf discs, spray treatment, 100 g/ha. As for the experimental part: Tetranychus Test (OP-Resistant/Spray Treatment)
as §1
Discs of bean leaves (Phaseolus vulgaris) which are infested by all stages of the greenhouse red spider mite (Tetranychus urticae) are sprayed with a preparation of active compound of the desired concentration.
After the desired period of time, the activity in % is determined 100% means that all spider mites have been killed; 0% means that none of the spider mites have been killed.
As for `CCOC(=O)Oc1c(-c2cc(-c3cccc([N+](=O)[O-])c3)ccc2C)c(=O)n2n1CCOCC2` [Ex. I-2-c-26], the “Kill rate in % after 5d” value is given as 90%.
Consider `Cc1ccc(-c2ccc(F)cc2)cc1-c1c(OC(=O)C(C)(C)C)n2n(c1=O)CCOCC2` [Ex. I-2-b-6], for which the “Kill rate in % after 5d” value is 90%.

Staying with this test, now noted: Tetranychus urticae (OP-resistant), bean leaf discs, spray treatment, 500 g/ha.
`Cc1ccc(-c2ccc(C)c(-c3c(OC(=O)C(C)(C)C)n4n(c3=O)CCCC4)c2)cc1` [Ex. I-1-b-9]: the “Kill rate in % after 5d” value was 100%.
Consider `Cc1ccc(-c2ccc(F)c(Cl)c2)cc1-c1c(O)n2n(c1=O)CCCC2` [Example I-1-a-17], for which the “Kill rate in % after 5d” value was 90%.
Still for that read-out and setting: as for `CCOC(=O)Oc1c(-c2cc(-c3ccc(F)c(Cl)c3)ccc2C)c(=O)n2n1CCCC2` [Ex. I-1-c-17], the figure is 100%; as for `CCOC(=O)Oc1c(-c2cc(-c3cc(Cl)ccc3Cl)ccc2C)c(=O)n2n1CCCC2` [Ex. I-1-c-12], 100%.
Still for that read-out and setting: to `CCOC(=O)Oc1c(-c2cc(-c3ccc(Cl)cc3Cl)ccc2C)c(=O)n2n1CCCC2` [Ex. I-1-c-11] belongs 100%; to `Cc1ccc(-c2ccc(Cl)cc2Cl)cc1-c1c(O)n2n(c1=O)CCCC2` [Example I-1-a-11], 100%.
On the same count and under the same terms, as for `CCOC(=O)Oc1c(-c2cc(-c3ccccc3C)ccc2C)c(=O)n2n1CCCC2` [Ex. I-1-c-7], the figure is 100%; as for `Cc1cc(C)c(-c2c(OC(=O)C(C)(C)C)n3n(c2=O)CCCC3)c(C)c1-c1ccc(F)cc1` [Ex. I-1-b-34], 90%; as for `Cc1ccc(-c2cccc(Cl)c2Cl)cc1-c1c(OC(=O)C(C)(C)C)n2n(c1=O)CCCC2` [Ex. I-1-b-10], 90%.
Turning to `CCOC(=O)Oc1c(-c2cc(-c3cc(F)ccc3F)ccc2C)c(=O)n2n1CCCC2` [Ex. I-1-c-16], the “Kill rate in % after 5d” value is reported as 100%.
For the compound `Cc1ccc(-c2cccc(Cl)c2Cl)cc1-c1c(O)n2n(c1=O)CCCC2` [Example I-1-a-10], the “Kill rate in % after 5d” value stood at 90%.
With `Cc1ccc(-c2ccc(Oc3ccccc3)cc2)cc1-c1c(OC(=O)C(C)(C)C)n2n(c1=O)CCCC2` [Ex. I-1-b-28], the “Kill rate in % after 5d” value was found to be 100%.
With `Cc1ccc(-c2cccc(Cl)c2)cc1-c1c(O)n2n(c1=O)CCOCC2` [Example I-2-a-2], the “Kill rate in % after 5d” value was found to be 90%.
The same measure, in the same setting: to `CCOC(=O)Oc1c(-c2cc(-c3ccc(OC)cc3)ccc2C)c(=O)n2n1CCOCC2` [Ex. I-2-c-23] belongs 100%; to `CCOC(=O)Oc1c(-c2cc(-c3cccc(Cl)c3Cl)ccc2C)c(=O)n2n1CCOCC2` [Ex. I-2-c-10], 100%.
Still for that read-out and setting: to `Cc1ccc(-c2cccc(Cl)c2Cl)cc1-c1c(OC(=O)C(C)(C)C)n2n(c1=O)CCOCC2` [Ex. I-2-b-10] belongs 100%.
